Results on 4 compounds are retold here after patent US20240156795A1, “METHODS AND COMPOSITIONS FOR THE TREATMENT OF DRUG RESISTANT TOPICAL INFECTIONS” (Lankenau Institute for Medical Research, priority 2020, published 2024).

The conditions of data set [1]: i.v. infusion of >50% solutions, cardiac surgery trial (Bennett-Guerrero et al., 2009); cited from earlier work.
Data set [2] concerns onychomycosis. To be noted: topical treatment of toenail fungus; cited from earlier work.
In data set [3] the target is T1, IDO1 (Homo sapiens, UniProt P14902).
T1 construct: endogenous in cells; host or cells: U937 cells, induced with IFN-γ
Description: IDO1 activity in U937 cells, kynurenine formation after IFN-γ induction. In kind it is cell-based. Particulars: IFN-γ induced, FIG. 2, read-out: IC50 for IDO inhibition in a cellular assay. On the procedure:
IDO1 activity in U937 cells was assessed by spectrophotometric measurement of kynurenine formation in the medium at least 24 hours post-induction with IFN-γ. Values are means of duplicate determinations ±SD.
The IDOL enzyme was first recognized as an antimicrobial. The approved topical formulant ethyl pyruvate (EP) can also blunt IDO levels and reverse immunosuppression in the setting of cancer to enable immune eradication. […] This is finding is not previously reported in the literature. The details of the assay protocol are published elsewhere.

Data set [4] concerns Trichophyton rubrum. Particulars: seven strains of Trichophyton rubrum; reported by others [28]; cited from earlier work.
Data set [5] relates to HIF1. Kind of data set: HIF1 stabilization in cells from B6 HIF-luciferase reporter mice, assayed ex vivo. In kind it is cell-based, mouse. On the procedure: Cells derived from B6 HIF-luciferase reporter mice were assayed ex vivo to detect the stabilization of HIF1 protein. Values are means of duplicate determinations ±SD. In the course of studies of inhibitors of proline hydroxylase-domain protein (PHD), an enzyme regulating cellular HIF1 levels, we observed that 10 μM ciclopirox enhanced the readout by 15-fold (screening data not shown). […] The details for the assay protocol are published elsewhere.

Molecules are shown by their SMILES. Where “and” joins values, the source holds several entries; their conditions need not be identical. Equal values may be shown once.

T1 sequence (P14902 whole entry): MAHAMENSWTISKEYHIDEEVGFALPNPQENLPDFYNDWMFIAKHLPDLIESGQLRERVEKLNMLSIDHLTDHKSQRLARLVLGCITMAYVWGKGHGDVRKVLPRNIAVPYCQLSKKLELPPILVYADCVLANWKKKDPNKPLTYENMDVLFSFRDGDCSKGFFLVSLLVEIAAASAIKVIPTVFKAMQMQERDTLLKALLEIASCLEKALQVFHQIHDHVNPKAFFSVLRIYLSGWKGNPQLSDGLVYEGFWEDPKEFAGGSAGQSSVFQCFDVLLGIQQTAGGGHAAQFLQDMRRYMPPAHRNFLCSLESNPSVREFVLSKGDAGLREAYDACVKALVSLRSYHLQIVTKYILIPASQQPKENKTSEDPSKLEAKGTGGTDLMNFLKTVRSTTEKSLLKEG

`CCOC(=O)C(C)=O` [EP, ethyl pyruvate]: in data set [1], the toxicity in humans result was “No significant toxicities were reported”.
For the compound `C=C1CCN([C@H](C)[C@](O)(Cn2cncn2)c2ccc(F)cc2F)CC1` [Jublia, efinaconazole], the “efficacy for complete clinical cure” value in data set [2] is recorded as no more than 18%.
In the case of `OB1OCc2cc(F)ccc21` [Kerydin, tavarborole], the “efficacy for complete clinical cure” value in data set [2] is reported as no more than 10%.
As for `Cc1cc(C2CCCCC2)n(O)c(=O)c1` [ciclopirox, ciclopirox olamine], the IC50 in data set [3] was roughly 2 µM. Besides, in data set [2], the “efficacy for complete clinical cure” value is reported as no more than 12%. Besides, the “average MIC concentration” value in data set [4] was ~16 μg/ml and ~77 μM. For the same compound, the “enhancement of HIF readout” value in data set [5] (10 μM ciclopirox, screening data not shown) was found to be 15 fold. In data set [5] (Mus musculus, follow-up study, FIG. 1, read-out: apparent EC50 for HIF level stimulation), the EC50 amounted to 5 µM. In data set [5] (follow-up study, FIG. 1), the “maximal stimulation of HIF levels over the solvent control” value is roughly 35 fold.
